According to patent US10981932B2, “Macrocyclic indole derivatives” (Bayer Aktiengesellschaft, priority 2016, dated 2021):
Where a name gives a salt, the structure may show the parent alone. Read-outs that look alike come from different tables or passages of the source.

Key:
BCL-2 = target: T1, BCL-2 (Homo sapiens, UniProt P10415); experiment: Protein-protein interaction assay BCL-2/Bad BH3 peptide (BCL-2 assay), TR-FRET; format: binding; details: His-BCL-2 / Bad BH3-derived peptide, median
T1 construct: BCL-2 (amino acids 1-211, C-terminal fused to a hexahistidine (6×His) tag); purchased BPS Bioscience (San Diego, Calif., USA); host or cells: E. coli
Protocol: Protein-Protein Interaction Assay: BCL-2/Bad BH3 Peptide (BCL-2 Assay)
The dose-dependent inhibition by the compounds described in this invention of the interaction between BCL-2 and the BH3 domain of Bad (both human) was determined using a steady state binding competition assay with time-resolved fluorescence energy transfer (TR-FRET) readout. For that purpose BCL-2 (amino acids 1-211, C-terminal fused to a hexahistidine (6×His) tag and a synthetic Bad BH3-derived peptide of sequence Biotin-PEG2-PEG2-NLWAAQRYGRELRR-Nle-SDEFVDSFKK-amide (SEQ ID NO: 2) served as protein receptor and tracer ligand respectively. The recombinant BCL-2 protein (expressed in E. coli) was purchased from BPS Bioscience (San Diego, Calif., USA). The Bad BH3-derived peptide can be obtained from e.g. Biosyntan (Berlin, Germany).
In the assay 11 different concentrations of each compound (0.1 nM, 0.33 nM, 1.1 nM, 3.8 nM. 13 nM, 44 nM, 0.15 μM, 0.51 μM, 1.7 μM, 5.9 μM and 20 μM) were typically measured as duplicates in the same microtiter plate. For that, 100-fold concentrated DMSO solutions were prepared by serial dilutions (1:3.4) of a 2 mM stock solution in a clear, 384-well microtiter plate (Greiner Bio-One, Frickenhausen, Germany). From there, 50 nl were transferred in a dark test plate (Greiner Bio-One. Frickenhausen, Germany). The assay was initiated by addition of 2 μl of a 2,5-fold concentrated His-BCL-2 solution (usually for a 1 nM end concentration in 5 μl reaction volume) in aqueous assay buffer [50 mM Tris/HCl pH 7, 100 mM sodium chloride (NaCl), 50 mM potassium fluoride (KF), 0.005% Tween-20, 2 mM DTT, 0.1% bovine gamma globulin (BGG)] to the compounds in the assay plate. This was followed by a 10-minute incubation step at 22° C. for pre-equilibration of the putative complex between His-BCL-2 and the compounds.
The mixture was incubated in the dark for one hour at 22° C. and then overnight at 4° C. The formation of BCL-2/Bad complexes was determined by measuring the resonance energy transfer of the anti-His-Eu-cryptate antibody to the streptavidin-XL665 present in the reaction. For that purpose, the fluorescence emission at 620 nm and 665 nm after excitation at 330-350 nm was measured in a TR-FRET measuring instrument, for instance a Rubystar or a Pherastar (both from BMG Lab Technologies. Offenburg, Germany) or a Viewlux (Perkin-Elmer). The ratio of the emission at 665 nm and at 622 nm was used as indicator of the amount of BCL-2/Bad complexes present.
The resulting data (ratio) were normalized, taking 0% inhibition as the mean value of control measurements (usually 32 data points) where all reagents were included. In this case 50 nl DMSO were used instead of compounds. A 100% inhibition corresponded to the mean value of control measurements (usually 32 data points) where all reagents except BCL-2 were included. IC50 values were determined by regression analysis based on a 4 parameter equation (minimum, maximum, IC50, Hill; Y=Max+(Min−Max)/(1+(X/IC50)^Hill) using the Screener Software (Genedata).

OPM2 = experiment: Anti-proliferative effect (CellTiter-Glo, 72 h), OPM2; format: cell-based; details: OPM2 cells, median, read-out: IC50 antiproliferation assay OPM2 [M] (median)
Outline: (§1)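 CellTiter-Glo luminescence readout of viability, taken on a time-zero plate at day 0 and on treated plates after 72 h incubation at 37 °C in a humidified incubator. Reagent incubation 10 min before reading.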

MV-4-11 = experiment: Anti-proliferative effect (CellTiter-Glo, 72 h), MV-4-11; format: cell-based; details: MV-4-11 cells, median, read-out: IC50 antiproliferation assay MV-4-11 [M] (median)
Outline: as §1

T1 sequence (P10415 1-211): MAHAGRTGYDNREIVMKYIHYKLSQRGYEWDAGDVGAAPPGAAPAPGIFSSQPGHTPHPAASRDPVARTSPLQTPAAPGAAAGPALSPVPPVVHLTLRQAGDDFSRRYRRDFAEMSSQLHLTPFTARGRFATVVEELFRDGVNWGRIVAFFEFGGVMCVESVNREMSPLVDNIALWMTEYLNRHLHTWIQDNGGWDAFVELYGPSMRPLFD

Row | IC50 (BCL-2) [µM] | IC50 (MV-4-11; Homo sapiens, MV4-11, 72 h) [M] | Compound | IC50 (OPM2) [M] | IC50 (OPM2; Homo sapiens, OPM-2, 72 h) [M] | IC50 (MV-4-11) [M]
1 | 2.34 | 7.2e-07 | CN1CCCn2c(C(=O)O)c(CCCOc3cccc4ccccc34)c3cccc(c32)-c2c(COc3ccc(N4CCN(S(C)(=O)=O)CC4)cc3)nn(C)c2C1 (single isomer, unassigned; enantiomer 1) [Example 1-46, (+)-7,9-dimethyl-11-({4-[4-(methylsulfonyl)piperazin-1-yl]phenoxy}methyl)-1-[3-(naphthalen-1-yloxy)propyl]-4,5,6,7,8,9-hexahydropyrazolo[3′,4′:7,8][1,5]diazecino[9,10,1-hi]indole-2-carboxylic Acid (Enantiomer 1)] | 1.52e-06 |  | 
2 | > 20 | 6.59e-06 | CN1CCCn2c(C(=O)O)c(CCCOc3cccc4ccccc34)c3cccc(c32)-c2c(CN3CCOCC3)nn(C)c2C1 (single isomer, unassigned; enantiomer 1) [Example 1-43, (+)-7,9-dimethyl-11-(morpholin-4-ylmethyl)-1-[3-(naphthalen-1-yloxy)propyl]-4,5,6,7,8,9-hexahydropyrazolo[3′,4′:7,8][1,5]diazecino[9,10,1-hi]indole-2-carboxylic Acid (Enantiomer 1)] |  | 1.81e-05 | 
3 | > 20 | 4.02e-06 | Cc1c2c(nn1C)COCCCCn1c(C(=O)O)c(CCCOc3cccc4ccccc34)c3cccc-2c31 (single isomer, unassigned; enantiomer 1) [Example 1-37, (+)-2,3-dimethyl-7-[3-(naphthalen-1-yloxy)propyl]-2,10,11,12,13,15-hexahydropyrazolo[4′,3′:9,10][1,6]oxazacycloundecino[8,7,6-hi]indole-8-carboxylic Acid (Enantiomer 1)] | 6.53e-06 |  | 
4 | > 20 | 4.44e-06 | COCc1nn(C)c2c1-c1cccc3c(CCCOc4cccc5ccccc45)c(C(=O)O)n(c13)CCCN(C)C2 (single isomer, unassigned; enantiomer 2) [Example 1-104, 11-(methoxymethyl)-7,9-dimethyl-1-[3-(1-naphthyloxy)propyl]-4,5,6,7,8,9-hexahydropyrazolo[3′,4′:7,8][1,5]diazecino[9,10,1-hi]indole-2-carboxylic Acid (Enantiomer 2)] |  |  | 
5 | > 20 | 8.02e-06 | Cc1c2c(nn1CCN1CCOCC1)CN(C)CCCn1c(C(=O)O)c(CCCOc3cccc4ccccc34)c3cccc-2c31 (single isomer, unassigned; enantiomer 2) [Example 061, 7,11-dimethyl-10-[2-(morpholin-4-yl)ethyl]-1-[3-(naphthalen-1-yloxy)propyl]-4,5,6,7,8,10-hexahydropyrazolo[3′,4′:7,8][1,5]diazecino[9,10,1-hi]indole-2-carboxylic Acid (Enantiomer 2)] | 2.51e-05 |  | 
6 | > 20 | 2.61e-06 | Cc1nn(C)c2c1-c1cccc3c(CCCOc4cccc5ccccc45)c(C(=O)O)n(c13)CCCN(C)C2 (single isomer, unassigned; enantiomer 1) [Example 1-31, 7,9,11-trimethyl-1-[3-(naphthalen-1-yloxy)propyl]-4,5,6,7,8,9-hexahydropyrazolo[3′,4′:7,8][1,5]diazecino[9,10,1-hi]indole-2-carboxylic Acid-N-ethylethanamine Salt (Enantiomer 1)] | 1.05e-05 |  | 
7 | > 20 | 2.29e-06 | Cc1nn(C)c2c1-c1cccc3c(CCCOc4ccc(F)c5ccccc45)c(C(=O)O)n(c13)CCCCOC2 (single isomer, unassigned; enantiomer 2) [Example 023, 7-{3-[(4-fluoronaphthalen-1-yl)oxy]propyl}-1,3-dimethyl-1,10,11,12,13,15-hexahydropyrazolo[4′3′:9,10][1,6]oxazacycloundecino[8,7,6-hi]indole-8-carboxylic acid-N-ethylethanamine Salt (Enantiomer 2)] |  | 6.79e-06 | 
8 | > 20 |  | Cc1c2c(nn1C)COCCCCn1c(C(=O)O)c(CCCOc3cccc4ccccc34)c3cccc-2c31 (racemic) [Example 1-36, (rac)-2,3-dimethyl-7-[3-(naphthalen-1-yloxy)propyl]-2,10,11,12,13,15-hexahydropyrazolo[4′,3′:9,10][1,6]oxazacycloundecino[8,7,6-hi]indole-8-carboxylic Acid] |  | 1.01e-05 | 
9 | > 20 |  | CCc1c2c(nn1C)CN(C)CCCn1c(C(=O)O)c(CCCOc3cccc4ccccc34)c3cccc-2c31 (racemic) [Example 141, (rac)-11-ethyl-7,10-dimethyl-1-[3-(1-naphthyloxy)propyl]-4,5,6,7,8,10-hexahydropyrazolo[3′,4′:7,8][1,5]diazecino[9,10,1-hi]indole-2-carboxylic Acid] |  | 9.12e-06 | 
10 | > 20 |  | Cc1c2c(nn1CCN1CCOCC1)CN(C)CCCn1c(C(=O)O)c(CCCOc3cccc4ccccc34)c3cccc-2c31 (single isomer, unassigned; enantiomer 1) [Example 060, 7,11-dimethyl-10-[2-(morpholin-4-yl)ethyl]-1-[3-(naphthalen-1-yloxy)propyl]-4,5,6,7,8,10-hexahydropyrazolo[3′,4′:7,8][1,5]diazecino[9,10,1-hi]indole-2-carboxylic Acid (Enantiomer 1)] |  | 1.27e-05 | 
11 | > 20 | 7.04e-06 | Cc1ccc2c(CCCOc3cccc4ccccc34)c(C(=O)O)n3c2c1-c1c(nn(C)c1C)CN(C)CCC3 (single isomer, unassigned; enantiomer 2) [Example 074, 7,10,11,12-tetramethyl-1-[3-(naphthalen-1-yloxy)propyl]-4,5,6,7,8,10-hexahydropyrazolo[3′,4′:7,8][1,5]diazecino[9,10,1-hi]indole-2-carboxylic Acid (Enantiomer 2)] |  |  | 

Row | Compound | IC50 (BCL-2) [µM] | IC50 (MV-4-11; Homo sapiens, MV4-11, 72 h) [M] | IC50 (OPM2) [M] | IC50 (OPM2; Homo sapiens, OPM-2, 72 h) [M] | IC50 (MV-4-11) [M]
12 | Cc1nn(C)c2c1-c1cccc3c(CCCOc4cccc5cc(F)ccc45)c(C(=O)O)n(c13)CCCOC2 (single isomer, unassigned; enantiomer 1) [Example 047, 1-{3-[(6-fluoronaphthalen-1-yl)oxy]propyl}-9,11-dimethyl-5,6,8,9-tetrahydro-4H-pyrazolo[4′,3′:8,9][1,5]oxazecino[7,6,5-hi]indole-2-carboxylic acid-N-ethylethanamine Salt (Enantiomer 1)] | > 20 |  |  |  | 5.38e-06
